Tests used:
[1] = biological target: T1, T1R2/T1R3 taste receptor (Homo sapiens, UniProt Q8TE23); experiment: Receptor-based assay: sweetener EC50 alone and with test compound (enhancement ratio); type: cell-based; conditions: for Sucralose Enhancement EC50 Ratio: sweetener sucralose; for Sucrose Enhancement EC50 Ratio: sweetener sucrose
T1 sequence (Q8TE23 20-839): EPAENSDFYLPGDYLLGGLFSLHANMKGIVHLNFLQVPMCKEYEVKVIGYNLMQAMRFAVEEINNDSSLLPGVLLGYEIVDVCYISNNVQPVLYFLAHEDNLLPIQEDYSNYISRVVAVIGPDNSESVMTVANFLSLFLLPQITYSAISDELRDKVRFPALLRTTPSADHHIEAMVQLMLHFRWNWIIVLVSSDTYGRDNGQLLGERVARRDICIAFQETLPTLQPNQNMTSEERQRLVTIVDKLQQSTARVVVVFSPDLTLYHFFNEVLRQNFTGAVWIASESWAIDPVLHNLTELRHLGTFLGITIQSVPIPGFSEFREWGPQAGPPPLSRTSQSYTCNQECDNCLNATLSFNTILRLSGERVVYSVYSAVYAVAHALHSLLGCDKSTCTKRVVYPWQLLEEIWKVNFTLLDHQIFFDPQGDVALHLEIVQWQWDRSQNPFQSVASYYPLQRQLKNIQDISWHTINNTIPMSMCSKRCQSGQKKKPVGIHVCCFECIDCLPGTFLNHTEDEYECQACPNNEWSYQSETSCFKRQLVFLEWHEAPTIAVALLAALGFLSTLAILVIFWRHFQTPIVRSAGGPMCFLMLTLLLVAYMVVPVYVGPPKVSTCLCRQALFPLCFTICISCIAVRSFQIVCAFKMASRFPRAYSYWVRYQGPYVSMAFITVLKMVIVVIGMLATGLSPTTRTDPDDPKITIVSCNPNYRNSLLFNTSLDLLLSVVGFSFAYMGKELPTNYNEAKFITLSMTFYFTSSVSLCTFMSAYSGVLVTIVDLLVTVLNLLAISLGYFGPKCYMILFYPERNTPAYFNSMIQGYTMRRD
T1 sequence (Q7RTX0 21-852 partner): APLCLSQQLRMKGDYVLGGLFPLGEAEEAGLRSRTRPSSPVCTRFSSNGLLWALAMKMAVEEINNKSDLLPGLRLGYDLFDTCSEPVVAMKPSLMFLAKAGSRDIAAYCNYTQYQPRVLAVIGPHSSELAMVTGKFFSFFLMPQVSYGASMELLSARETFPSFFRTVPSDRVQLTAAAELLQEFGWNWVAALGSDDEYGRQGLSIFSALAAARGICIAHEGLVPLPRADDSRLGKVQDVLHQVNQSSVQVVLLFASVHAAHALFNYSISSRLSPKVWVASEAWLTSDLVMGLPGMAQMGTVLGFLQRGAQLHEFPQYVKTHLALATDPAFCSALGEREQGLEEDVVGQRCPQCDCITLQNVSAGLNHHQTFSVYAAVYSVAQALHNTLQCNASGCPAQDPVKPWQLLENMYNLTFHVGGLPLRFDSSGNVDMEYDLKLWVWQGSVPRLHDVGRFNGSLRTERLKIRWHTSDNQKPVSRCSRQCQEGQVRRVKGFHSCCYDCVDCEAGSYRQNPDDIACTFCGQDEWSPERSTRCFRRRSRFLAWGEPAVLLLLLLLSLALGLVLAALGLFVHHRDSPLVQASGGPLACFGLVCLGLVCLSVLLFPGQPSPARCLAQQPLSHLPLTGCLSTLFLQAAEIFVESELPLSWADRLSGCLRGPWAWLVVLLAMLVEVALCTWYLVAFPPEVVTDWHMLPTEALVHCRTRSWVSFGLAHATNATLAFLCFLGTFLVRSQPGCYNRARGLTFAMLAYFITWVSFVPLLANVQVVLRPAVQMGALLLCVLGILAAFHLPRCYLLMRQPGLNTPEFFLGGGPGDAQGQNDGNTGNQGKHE
How it was run: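 Sucrose, sucralose or fructose EC50 measured on human T1R2/T1R3, alone and with 3, 10 or 50 μM test compound. Enhancement is the EC50 ratio without/with compound, binned A >20, B 10-20, C >1 to <10.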

[2] = Sensory experiments: paired comparison of sweetener alone vs sweetener plus test compound; type: in vivo, human; conditions: panelists
Method: (§1) Test samples containing either a sweetener (sucrose or high-fructose corn syrup) alone or in combination with a test compound were presented in pairs to a group of panelists who were asked to determine which of the samples was sweeter. Subjects refrained from eating or drinking (except water) for at least 1 hour prior to the test. Subjects rinsed with water several times to clean the mouth. The samples within a paired comparison test were presented in a randomized, counterbalanced order. Panelists had up to a 1 minute delay between taste tests to clear the mouth of any tastes. Binomial probability tables were used to determine the probability of the correct number of responses occurring for each test at alpha-0.05.
Stock solutions of test compounds were prepared at 1000× final concentration with ethanol to ensure dispersion in solution. Test compound samples including sucrose were prepared by diluting the stock solutions in a low sodium buffer (0.952 g of KCl, 5.444 g of Na2HPO4, and 0.952 g of KH2PO4 in deionized ultrafiltered water) at pH 7.1 and containing sucrose. Test compound samples including high fructose corn syrup were prepared by diluting the stock solutions in the low sodium buffer at pH 2.8 (using citric acid to adjust the pH) and containing high fructose corn syrup. Control samples were balanced to 0.1% ethanol final. […]

[3] = Sensory evaluation of inherent sweetness of test compound; type: in vivo, human; conditions: test compound alone at 10 ppm
Method: as §1
Stock solutions of test compounds were prepared at 1000× final concentration with ethanol to ensure dispersion in solution. Test compound samples including sucrose were prepared by diluting the stock solutions in a low sodium buffer (0.952 g of KCl, 5.444 g of Na2HPO4, and 0.952 g of KH2PO4 in deionized ultrafiltered water) at pH 7.1 and containing sucrose. Test compound samples including high fructose corn syrup were prepared by diluting the stock solutions in the low sodium buffer at pH 2.8 (using citric acid to adjust the pH) and containing high fructose corn syrup. Control samples were balanced to 0.1% ethanol final.
Compound 200 was also tested for inherent sweetness. […]

Compound | Sucralose Enhancement EC50 Ratio ([1]; 10 μM test compound) | Sucrose Enhancement EC50 Ratio ([1]; 3 μM test compound) | Sucrose Enhancement EC50 Ratio ([1]; 10 μM test compound) | Sucrose Enhancement EC50 Ratio ([1]; 50 μM test compound) | sweetness intensity of the combination of test compound and 6% HFCS, compared with HFCS-alone ([2]; test compound at 10 ppm or less with 6% HFCS, low sodium buffer pH 2.8) | Equivalent Sucrose Conc. ([2]; test compound at 10 ppm or less with 6% sucrose, low sodium buffer pH 7.1) | inherent sweetness intensity, compared with sucrose solution [3] [% sucrose] | Fructose Enhancement EC50 Ratio ([1]; sweetener fructose, 50 μM test compound) | Sucralose Enhancement EC50 Ratio ([1]; 50 μM test compound)
CC(C)(COc1cccc2c1C(N)=NS(=O)(=O)N2)Nc1ccnc(-n2ccnc2)n1 [Compound 200, 4-amino-5-(2-((2-(1H-imidazol-1-yl)pyrimidin-4-yl)amino)-2-methylpropoxy)1H-benzo[c][1,2,6]thiadiazine 2,2-dioxide] | A (An “A” value indicates an enhancement ratio of greater than 20) | C (A “C” value indicates an enhancement ratio greater than 1 and less than 10) | C (A “C” value indicates an enhancement ratio greater than 1 and less than 10) | C (A “C” value indicates an enhancement ratio greater than 1 and less than 10) | greater than 6 % HFCS | A (An “A” value indicates an equivalent sucrose concentration of 10% or greater) | < 1.5 | – | –
NC1=NS(=O)(=O)Nc2cccc(OC[C@H]3CCCN(c4cc(C(=O)NCC5CCCCC5)ccn4)C3)c21 [Compound 618] | B (A “B” value indicates an enhancement ratio from 10 to 20) | C (A “C” value indicates an enhancement ratio greater than 1 and less than 10) | C (A “C” value indicates an enhancement ratio greater than 1 and less than 10) | C (A “C” value indicates an enhancement ratio greater than 1 and less than 10) | – | – | – | C (A “C” value indicates an enhancement ratio greater than 1 and less than 10) | B (A “B” value indicates an enhancement ratio from 10 to 20)
